Assay results: paper PMC7719179, “Small molecule inhibition of Dynamin-dependent endocytosis targets multiple niche signals and impairs leukemia stem cells” (Nature Communications, 2020)
Several values for one entry are separate records, joined by “and”; a condition that tells them apart may be missing. Identical values can stand only once.

Experiments:
[1] = test system: IL-7 signalling (pStat5) in Ba/F3-IL7R cells; experiment: IL-7-induced phospho-Stat5 in Ba/F3-IL7R cells (phosphoflow); type: cell-based, murine; conditions: for pStat5 (MFI): replicates
Description: Ba/F3 cells (kindly provided by a person from The Walter and Eliza Hall Institute of Medical Research) were infected with pMIG-R1/Il7r retroviral supernatants produced in 293T cells, and transduced cells were sorted with a BD Influx (BD Australia) and selected by culture in medium supplemented with 5 ng/mL rmIL-7 (#217-17, Pepro Tech, Rocky Hill NJ, USA) for 7 days. Ba/F3 cells stably expressing Il7r (Ba/F3-IL7R) were infected with TxTCPVIR-Stat5-CA retroviral supernatants produced in 293T. Cell sorting was performed with a BD Influx and transduced cells were treated with doxycycline for 48 h to induce the expression of the Stat5-CA-T2A-mCherry fusion protein.
Phosphoflow analysis was performed as previously described. Briefly, 2 × 10^6 cells stained for surface markers were subsequently resuspended into PBS 1× + 4% v/v paraformaldehyde and incubated for 10 min at 4 °C for fixation. Fixed cells were washed twice using PBS 1×, then resuspended in pre-chilled at −20 °C Perm Buffer III (BD Pharmingen) and incubated 30 min at 4 °C for permeabilization. Cells were washed twice using PBS 1× and incubated overnight at 4 °C in PBS 1× + 2% v/v fetal calf serum (FCS) with Cell Signalling purified antibodies (Genesearch Pty Ltd, Arundel QLD, Australia) against pSTAT5 (Tyr694; #9359), phospho-p38 MAPK (Thr180/Tyr182; #4511), phospho-p44/42 (Erk1/2; #9102), phospho-S6 (Ser235/236; #4856) and phospho-Akt (Ser473; #9271) or isotype control. For intracellular HES1 detection, cells stained for surface markers were subsequently fixed and permeabilized using the BD Cytofix/Cytoperm^TM Kit and incubated overnight at 4 °C in PBS 1× + 2% v/v FCS with a purified antibody against HES1 (D6PU; #11988, Cell Signalling) or isotype control. After staining with primary antibodies for phosphoflow or intracellular detection, cells were incubated in permeabilization buffer with donkey Alexa Fluor 488-conjugated anti-rabbit secondary antibody (A-21206, lot #1910751, Molecular Probes, Invitrogen) or goat Alexa Fluor 546-conjugated anti-rabbit secondary antibody (A-11035, lot #1904467, Molecular Probes, Invitrogen) for 1 h on ice, and washed twice in PBS 1×. Fluorescence-activated cell sorting (FACS) analysis was performed using LSRII and LSR Fortessa cytometers, following the gating strategies described in Supplementary Fig. 11. Cell sorting was performed with a FACSAria or BD Influx.
For in vitro IL-7 stimulation assays, cells were starved in serum-free DMEM at 37 °C, then incubated with either vehicle or Dynole 34-2 or Ruxolitinib (INCB018424; #S1378, Selleckchem), or DAPT (GSI-IX; #S2215, Selleckchem) resuspended in DMSO for 1 h. Thymocytes were subsequently stimulated with 25 ng/mL IL-7 at 37 °C for 20 min and washed twice using cold PBS 1×. Cells were incubated with 25 ng/mL Rat IgG (Sigma-Aldrich Pty Ltd, Castle Hill NSW, Australia) and with a PE-conjugated antibody for detection of IL-7R (CD127) for 1 h on ice, as described in the FACS analysis section. PE-conjugated isotype was used as negative control. Cells were washed twice, fixed and phosphoflow analysis performed as described in the FACS analysis section. The analysis was performed in triplicate and the mean fluorescence intensity (MFI) observed without stimulation was reported as 100%.

[2] = test system: self-renewing pre-LSCs in Mx;YFP;Lmo2^Tg mice; experiment: Intrathymic competition assay in Mx;YFP;Lmo2^Tg mice (%YFP+ DN3a thymocytes, BM); type: in vivo, mouse
Text: To exclude this possibility, we used a cell-marking strategy that enables detection of pre-LSCs in the absence of transplantation. In this assay, treatment of Mx1-Cre transgenic Rosa26-YFP (Mx;YFP) reporter mice with polyinosinic-polycytidylic acid (poly (I : C)) induces yellow fluorescent protein (YFP) expression in hematopoietic stem cells (HSCs)[10] (Supplementary Fig. 4e). In WT Mx;YFP mice, normal turnover of the thymus by HSCs leads to the generation of YFP-labelled DN3a cells over a 3-week period. However, in Mx;YFP;Lmo2^Tg mice, the presence of self-renewing pre-LSCs prevents YFP-labelled HSCs to replenish the thymus[10] and, thus, Lmo2^Tg DN3a thymocytes remain YFP negative. Therefore, we reasoned that therapies targeting pre-LSC self-renewal would allow migration of YFP^+ HSCs with the generation of YFP-labelled thymocytes.

[3] = test system: normal murine hematopoietic stem and progenitor cells (HSPCs)
Description: Bone marrow cells collected from 2-month-old WT mice or CD34-positive (CD34+) stem and progenitor bone marrow cells from healthy donors were seeded at a density of 5 × 10^4 cells per 35 mm dish in semi-solid agar for GM colony growth, as previously described[92]. Cultures were incubated at 37 °C in 10% CO2 for 10 days in presence of 10 μg/mL rhIL-3 (#200-03, Pepro Tech), 25 μg/mL rhSCF (#300-07, Pepro Tech), 25 μg/mL rhFLT3-L (#300-19, Pepro Tech), rhIL-6 (#200-06, Pepro Tech), 500 nM StemRegenin 1 (SR1; #1227633-49-9, Stem Cell Technologies) and 35 nM UM-171 (#72914, Stem Cell Technologies)[93],[94], then stained with acetyl-cholinesterase and counted for the number of colonies.

SMILES | pStat5 (MFI) ([1]; Ba/F3-IL7R cells, +IL-7, Dynole 34-2 0.2) | pStat5 (MFI) ([1]; Ba/F3-IL7R cells, +IL-7, Dynole 34-2 1.0) | pStat5 (MFI) ([1]; Ba/F3-IL7R cells, +IL-7, Dynole 34-2 5.0) | pStat5 (MFI) ([1]; Ba/F3-IL7R cells, +IL-7, Dynole 34-2 10.0) | pStat5 (MFI) ([1]; Ba/F3-IL7R cells, +IL-7, Dynole 34-2 25.0) | inhibition of IL-7 signalling as measured by loss of phospho-Stat5 ([1]; Ba/F3-IL7R cells, result in words) | IC50 ([1]; Mus musculus, Ba/F3-IL7R cells + IL-7, flow cytometry, read-out: IC50, inhibition of IL-7 signalling (pStat5)) [µM] | % YFP+ cells in DN3a population ([2]; Mx, YFP, Lmo2Tg mice, individual mice) | YFP-labelled DN3a thymocytes ([2]; Mx;YFP;Lmo2^Tg mice, vehicle 10%) [%] | % YFP+ cells in bone marrow ([2]; genotype Mx, YFP, Lmo2Tg) | growth of normal hematopoietic stem and progenitor cells (HSPCs), clonogenic assay [3]
CCCCCCCCNC(=O)C(C#N)=Cc1cn(CCCN(C)C)c2ccccc12 [Dynole 34-2, 2-Cyano-N-octyl-3-(1-(3-dimethylaminopropyl)-1H-indol-3-yl)-acrylamide] | 2033 MFI and 1947 MFI and 1891 MFI | 1526 MFI and 1732 MFI and 1712 MFI | 1296 MFI and 1207 MFI and 1690 MFI | 1304 MFI and 1113 MFI and 1201 MFI | 1259 MFI and 1141 MFI and 1161 MFI | dose-dependent inhibition | 4.29 ± 0.77 | 70.1% and 38.6% and 29.3% | 46 | 99% and 98.9% | –
N#CC[C@H](C1CCCC1)n1cc(-c2ncnc3[nH]ccc23)cn1 [Ruxolitinib] | – | – | – | – | – | – | – | – | – | – | significantly impaired
